Assay [1] deals with T1, hFASN enzyme (full length) (Homo sapiens, UniProt P49327).
T1 construct: 10 μL hFASN enzyme (full length, 300 ng, purified in house); made in house
The assay can be described thus: Fatty Acid Synthase (FASN) Inhibition Scintillation Proximity Assay. Format: biochemical. The note with it: for IC50: mean where tested more than once, ~ = standard error of pIC50 larger than 0.5; for inhibition at 10 µM: read-out: FASN % Effect @1E−05M. Put shortly:
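Eight compound concentrations (0.01–30 μM) tested in pH 7.5 phosphate buffer with DTT; human full-length enzyme converted [3H]-acetyl-CoA plus malonyl-CoA, with NADPH, over 60 min at room temperature. Hydrophobic [3H]-palmitate detected by bead proximity scintillation imaging; control-normalised data fitted for IC50/pIC50.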
For orientation: SPA uses beads or plates that emit light when radiolabelled molecules are held near them.

The target of assay [2] is T2, FASN Keto-reductase Domain (Homo sapiens, UniProt P49327).
T2 construct: 10 μL hFASN enzyme (full length, 300 ng, purified in house) and 360 μM NADPH; made in house
Kind of assay: Fatty Acid Synthase Keto-Reductase Domain (FASN KR) Inhibition. The note with it: mean where tested more than once; read-out: FASN K-R Domain pIC50 (converted). Format: biochemical. In outline:
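Keto-reductase activity followed as NADPH consumption (A340 drop between 0 and 20 min, room temperature) using in-house full-length hFASN, 360 μM NADPH and ethyl acetoacetate substrate (180 mM stock), pH 7.5 phosphate buffer.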

Assay [3] has as its system A2780 ovarian cells. The assay can be described thus: A2780 Ovarian Cell Proliferation Assay in Lipid Reduced Medium, without Palmitate. Type of assay: cell-based. The conditions noted are these: Homo sapiens, A2780; lipid reduced medium, without palmitate, 96 h, MTT; read-out: Proliferation A2780 w/o Palmitate pIC50 (converted). Put shortly: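 A2780 cells were seeded in 10% FCS medium and switched next day to 10% lipid-reduced serum without palmitate. Compounds at 0.01–30 μM were added with 0.2% DMSO, 0.2% fatty-acid-free BSA and 0.25% ethanol final. After 96 h, MTT absorbance at 544 nm was normalized to plate controls, and IC50/pIC50 came from a 4-parameter logistic fit.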

In assay [4] the test system is A2780 ovarian cells. The assay can be described thus: A2780 Ovarian Cell Proliferation Assay in Lipid Reduced Medium, with Palmitate (control). Type of assay: cell-based. The note with it: Homo sapiens, A2780; lipid reduced medium, 25 μM palmitate, 96 h, MTT; read-out: Proliferation A2780 with Palmitate pIC50 (converted). Put shortly:
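Read-out was MTT absorbance at 544 nm after 96 h at 37 °C. Cells grown overnight in RPMI1640/10% FCS were moved to 10% lipid-reduced serum with compound plus palmitate (final 25 μM, 0.2% fatty-acid-free BSA, 0.2% DMSO). IC50 came from least-squares curve fitting, expressed as −log(IC50).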

Where only a bound is given, the exact number is not on record here.

T1 sequence (P49327 whole entry): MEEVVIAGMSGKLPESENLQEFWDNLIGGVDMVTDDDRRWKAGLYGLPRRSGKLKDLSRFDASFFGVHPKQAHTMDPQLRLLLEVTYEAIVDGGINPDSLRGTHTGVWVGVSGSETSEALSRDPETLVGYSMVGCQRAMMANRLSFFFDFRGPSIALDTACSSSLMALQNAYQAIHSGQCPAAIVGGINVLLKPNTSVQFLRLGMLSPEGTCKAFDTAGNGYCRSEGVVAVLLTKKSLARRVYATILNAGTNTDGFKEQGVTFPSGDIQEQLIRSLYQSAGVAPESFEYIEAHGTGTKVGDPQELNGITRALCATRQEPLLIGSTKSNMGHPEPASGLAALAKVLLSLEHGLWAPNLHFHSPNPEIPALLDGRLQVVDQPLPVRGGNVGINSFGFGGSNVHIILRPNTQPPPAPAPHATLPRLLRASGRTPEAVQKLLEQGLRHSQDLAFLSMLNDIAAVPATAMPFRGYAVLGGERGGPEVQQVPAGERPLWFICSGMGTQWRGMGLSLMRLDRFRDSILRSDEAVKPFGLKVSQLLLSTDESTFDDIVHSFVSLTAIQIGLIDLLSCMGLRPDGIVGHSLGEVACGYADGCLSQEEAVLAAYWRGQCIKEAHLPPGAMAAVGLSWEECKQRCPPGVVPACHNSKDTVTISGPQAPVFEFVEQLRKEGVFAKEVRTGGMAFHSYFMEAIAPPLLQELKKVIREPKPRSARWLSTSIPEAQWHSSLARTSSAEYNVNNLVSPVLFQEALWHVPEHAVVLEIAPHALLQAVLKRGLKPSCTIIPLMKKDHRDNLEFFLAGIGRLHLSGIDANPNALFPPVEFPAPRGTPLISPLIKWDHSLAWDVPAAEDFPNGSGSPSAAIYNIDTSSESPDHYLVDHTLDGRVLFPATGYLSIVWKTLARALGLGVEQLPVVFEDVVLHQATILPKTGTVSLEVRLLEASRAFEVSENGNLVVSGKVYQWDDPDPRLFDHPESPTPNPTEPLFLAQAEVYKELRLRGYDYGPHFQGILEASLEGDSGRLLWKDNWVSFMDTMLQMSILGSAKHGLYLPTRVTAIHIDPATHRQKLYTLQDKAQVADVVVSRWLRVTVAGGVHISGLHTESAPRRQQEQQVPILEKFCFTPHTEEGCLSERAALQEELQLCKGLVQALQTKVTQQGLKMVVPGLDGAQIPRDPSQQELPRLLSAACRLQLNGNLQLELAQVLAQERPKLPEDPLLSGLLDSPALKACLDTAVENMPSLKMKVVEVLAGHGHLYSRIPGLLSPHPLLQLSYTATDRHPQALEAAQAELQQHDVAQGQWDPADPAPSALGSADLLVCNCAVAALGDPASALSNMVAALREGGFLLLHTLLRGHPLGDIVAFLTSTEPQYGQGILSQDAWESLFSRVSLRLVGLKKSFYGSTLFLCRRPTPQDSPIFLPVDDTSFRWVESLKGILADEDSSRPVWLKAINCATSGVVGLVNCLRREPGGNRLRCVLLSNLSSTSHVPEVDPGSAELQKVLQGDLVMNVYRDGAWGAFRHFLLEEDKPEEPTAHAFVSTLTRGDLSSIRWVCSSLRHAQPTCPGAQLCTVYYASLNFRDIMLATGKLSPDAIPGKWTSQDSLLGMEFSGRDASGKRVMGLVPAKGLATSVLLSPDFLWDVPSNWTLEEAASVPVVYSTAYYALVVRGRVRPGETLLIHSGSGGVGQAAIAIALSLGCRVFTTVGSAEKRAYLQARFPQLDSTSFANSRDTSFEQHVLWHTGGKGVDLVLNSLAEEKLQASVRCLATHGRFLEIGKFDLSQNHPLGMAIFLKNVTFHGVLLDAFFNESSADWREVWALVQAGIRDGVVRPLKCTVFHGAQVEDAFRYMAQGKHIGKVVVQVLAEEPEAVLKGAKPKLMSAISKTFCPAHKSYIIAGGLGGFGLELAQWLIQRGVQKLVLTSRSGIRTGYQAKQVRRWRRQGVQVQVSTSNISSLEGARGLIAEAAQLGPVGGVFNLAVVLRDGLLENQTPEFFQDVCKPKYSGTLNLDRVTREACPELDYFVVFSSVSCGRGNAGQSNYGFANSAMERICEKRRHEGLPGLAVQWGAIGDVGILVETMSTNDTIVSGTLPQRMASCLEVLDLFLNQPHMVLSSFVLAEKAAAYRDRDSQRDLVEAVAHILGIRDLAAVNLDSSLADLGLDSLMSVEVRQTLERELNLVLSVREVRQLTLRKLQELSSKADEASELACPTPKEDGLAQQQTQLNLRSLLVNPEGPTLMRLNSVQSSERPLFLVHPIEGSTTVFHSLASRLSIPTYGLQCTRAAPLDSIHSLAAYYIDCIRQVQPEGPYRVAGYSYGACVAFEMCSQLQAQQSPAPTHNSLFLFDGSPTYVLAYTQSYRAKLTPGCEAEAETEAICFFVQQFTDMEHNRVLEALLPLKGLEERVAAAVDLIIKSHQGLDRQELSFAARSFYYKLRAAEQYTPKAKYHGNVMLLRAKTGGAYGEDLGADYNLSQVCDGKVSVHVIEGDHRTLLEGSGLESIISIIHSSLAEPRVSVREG
T2 sequence (P49327 whole entry, the tested form may be a part): as the sequence (P49327 whole entry) above

In the case of `Cc1cc(C(=O)Nc2cc(C(=O)N3CCC(c4ccc(-c5cnn(C)c5)cc4)CC3)ccc2C)ccn1` [Compound 98, 2-methyl-N-(2-methyl-5-(4-(4-(1-methyl-1H-pyrazol-4-yl)phenyl)piperidine-1-carbonyl)phenyl)isonicotinamide], the IC50 was 30.2 nM in assay [1], 91.2 nM in assay [2], 46.8 nM in assay [3] and 1200 nM in assay [4]. Besides, the inhibition at 10 µM in assay [1] worked out at 102%.

Turning to `Cc1ccc(C(=O)N2CCC(c3ccc(-c4cnn(C)c4)cc3)CC2)cc1NC(=O)c1cccs1` [Compound 130, N-(2-methyl-5-(4-(4-(1-methyl-1H-pyrazol-4-yl)phenyl)piperidine-1-carbonyl)phenyl)thiophene-2-carboxamide], the IC50 in assay [1] is 47.9 nM; in assay [2] it was 126 nM; in assay [3] it was ~123 nM; in assay [4], > 10000 nM. Further, in assay [1], the inhibition at 10 µM was determined as 108%.

For `CC(C)Nc1ccc(C(=O)Nc2cc(C(=O)N3CC(c4ccc(-c5ccnc6ccccc56)cc4)C3)ccc2Cl)cn1` [Compound 63, N-(2-chloro-5-(3-(4-(quinolin-4-yl)phenyl)azetidine-1-carbonyl)phenyl)-6-(isopropylamino)nicotinamide], the IC50 in assay [1] is 27.5 nM; in assay [2] it was 24.5 nM; in assay [3] it was 53.7 nM; in assay [4] it was 3020 nM. The inhibition at 10 µM in assay [1] was found to be 100%.

For the compound `Cc1ccc(C(=O)N2CCC(c3ncc(-c4cnn(C)c4)cn3)CC2)cc1NC(=O)c1ccc(NC(C)C)nc1` [Compound 258, 6-(isopropylamino)-N-(2-methyl-5-(4-(5-(1-methyl-1H-pyrazol-4-yl)pyrimidin-2-yl)piperidine-1-carbonyl)phenyl)nicotinamide], the IC50 in assay [1] was 245 nM; in assay [2], 1230 nM; in assay [3] it was 389 nM; in assay [4], > 10000 nM. Moreover, the inhibition at 10 µM in assay [1] worked out at 99%.

In the case of `Cc1ccc(C(=O)N2CCC(c3ccc(-c4cnn(C)c4)cc3)CC2)cc1NC(=O)C1CCCCC1` [Compound 86, N-(2-methyl-5-(4-(4-(1-methyl-1H-pyrazol-4-yl)phenyl)piperidine-1-carbonyl)phenyl)cyclohexanecarboxamide], the IC50 was 22.4 nM in assay [1], 75.9 nM in assay [2], 182 nM in assay [3] and > 10000 nM in assay [4]. Also, the inhibition at 10 µM in assay [1] was found to be 106%.

As for `Cc1ccc(C(=O)N2CCC(c3ccc(-c4cnn(C)c4)cc3)CC2)cc1NC(=O)C1CCOCC1` [Compound 104, N-(2-methyl-5-(4-(4-(1-methyl-1H-pyrazol-4-yl)phenyl)piperidine-1-carbonyl)phenyl)tetrahydro-2H-pyran-4-carboxamide], the IC50 in assay [1] is 42.7 nM; in assay [2], 87.1 nM; in assay [3] it was 70.8 nM; in assay [4] it was > 10000 nM. Also, the inhibition at 10 µM in assay [1] was 104%.

Take `Cc1ccc(C(=O)N2CCC(c3ccc(-c4cnn(C)c4)cc3)CC2)cc1NC(=O)c1ccc(F)cc1Cl` [Compound 147, 2-chloro-4-fluoro-N-(2-methyl-5-(4-(4-(1-methyl-1H-pyrazol-4-yl)phenyl)piperidine-1-carbonyl)phenyl)benzamide]: the IC50 in assay [1] is 34.7 nM; in assay [2], 138 nM; in assay [3], 234 nM; in assay [4] it was > 10000 nM. Further, in assay [1], the inhibition at 10 µM amounted to 107%.

Turning to `Cc1ccc(C(=O)N2CCC(c3ccc(-c4cnn(C)c4)cc3)CC2)cc1NC(=O)C1CN(C(C)C)C1` [Compound 206, 1-isopropyl-N-(2-methyl-5-(4-(4-(1-methyl-1H-pyrazol-4-yl)phenyl)piperidine-1-carbonyl)phenyl)azetidine-3-carboxamide], the IC50 in assay [1] was 158 nM; in assay [2], 457 nM; in assay [3] it was 151 nM; in assay [4], > 10000 nM. The inhibition at 10 µM in assay [1] came to 99%.

As to `Cc1ccc(C(=O)N2CCC(c3ccc(-c4cn(C)nc4C)cc3)CC2)cc1NC(=O)c1ccc(NC(C)C)nc1` [Compound 245, N-(5-(4-(4-(1,3-dimethyl-1H-pyrazol-4-yl)phenyl)piperidine-1-carbonyl)-2-methylphenyl)-6-(isopropylamino)nicotinamide], the IC50 was 33.9 nM in assay [1], 75.9 nM in assay [2], ~31.6 nM in assay [3] and > 10000 nM in assay [4]. Moreover, the inhibition at 10 µM in assay [1] stood at 108%.

As for `CCCCN1CCC(C(=O)Nc2cc(C(=O)N3CCC(c4ccc(-c5cnn(C)c5)cc4)CC3)ccc2C)C1` (stereo not drawn) [Compound 212, 1-butyl-N-(2-methyl-5-(4-(4-(1-methyl-1H-pyrazol-4-yl)phenyl)piperidine-1-carbonyl)phenyl)pyrrolidine-3-carboxamide], the IC50 in assay [1] is 120 nM; in assay [2], 324 nM; in assay [3] it was 120 nM; in assay [4], > 10000 nM. The inhibition at 10 µM in assay [1] came to 108%.

For `Cc1ccc(C(=O)N2CCC(c3ccc(-c4cnn(C5CCOCC5)c4)cc3)CC2)cc1NC(=O)c1ccc(NC(C)C)nc1` [Compound 217], the IC50 is 174 nM in assay [1], 501 nM in assay [2], 214 nM in assay [3] and > 10000 nM in assay [4]. In addition, in assay [1], the inhibition at 10 µM was found to be 105%.

Consider `Cc1ccc(C(=O)N2CC(c3ccc(-c4cnn(C)c4)cc3)C2)cc1NC(=O)c1cnc(N2CCOCC2)nc1` [Compound 159, N-(2-methyl-5-(3-(4-(1-methyl-1H-pyrazol-4-yl)phenyl)azetidine-1-carbonyl)phenyl)-2-morpholinopyrimidine-5-carboxamide], for which the IC50 in assay [1] was 22.9 nM; in assay [2], 33.9 nM; in assay [3] it was ~5.75 nM; in assay [4] it was > 10000 nM. Also, the inhibition at 10 µM in assay [1] was 104%.

In the case of `Cc1ccc(C(=O)N2CC(c3ccc(-c4ccnn4C)cc3)C2)cc1NC(=O)c1cncc(Br)c1` [Compound 56, 5-bromo-N-(2-methyl-5-(3-(4-(1-methyl-1H-pyrazol-5-yl)phenyl)azetidine-1-carbonyl)phenyl)nicotinamide], the IC50 was 309 nM in assay [1], 457 nM in assay [2], 437 nM in assay [3] and 912 nM in assay [4]. Further, the inhibition at 10 µM in assay [1] stood at 95%.

Turning to `Cc1ccc(C(=O)N2CCC(c3ncc(-c4cnn(C)c4)cn3)CC2)cc1NC(=O)c1ccc(Cl)nc1` [Compound 257, 6-chloro-N-(2-methyl-5-(4-(5-(1-methyl-1H-pyrazol-4-yl)pyrimidin-2-yl)piperidine-1-carbonyl)phenyl)nicotinamide], the IC50 in assay [1] was 617 nM; in assay [2], 2040 nM; in assay [3] it was 891 nM; in assay [4] it was > 10000 nM. For the same compound, in assay [1], the inhibition at 10 µM came out at 95%.

Turning to `Cc1ccc(C(=O)N2CCC(c3ccc(-c4cnn(C)c4)cc3)CC2)cc1NC(=O)c1ccc2[nH]ccc2c1` [Compound 160, N-(2-methyl-5-(4-(4-(1-methyl-1H-pyrazol-4-yl)phenyl)piperidine-1-carbonyl)phenyl)-1H-indole-5-carboxamide], the IC50 was 40.7 nM in assay [1], 91.2 nM in assay [2], 28.2 nM in assay [3] and 6920 nM in assay [4]. For the same compound, the inhibition at 10 µM in assay [1] was 100%.

On to `Cc1ccc(C(=O)N2CCC(c3ccc(-c4cnn(C)c4)cc3)CC2)cc1NC(=O)C1CN(C2CCC(C)C2)C1` (stereo not drawn) [Compound 193, N-(2-methyl-5-(4-(4-(1-methyl-1H-pyrazol-4-yl)phenyl)piperidine-1-carbonyl)phenyl)-1-(3-methylcyclopentyl)azetidine-3-carboxamide], for which the IC50 in assay [1] is 60.3 nM; in assay [2] it was 178 nM; in assay [3], 148 nM; in assay [4], 7080 nM. Moreover, the inhibition at 10 µM in assay [1] amounted to 109%.

Take `Cc1ccc(C(=O)N2CCC(c3ccc(-c4cnn(C)c4)cc3)CC2)cc1NC(=O)C1CCN(CC(C)(C)C)C1` (stereo not drawn) [Compound 192, N-(2-methyl-5-(4-(4-(1-methyl-1H-pyrazol-4-yl)phenyl)piperidine-1-carbonyl)phenyl)-1-neopentylpyrrolidine-3-carboxamide]: the IC50 is 53.7 nM in assay [1], 170 nM in assay [2], 79.4 nM in assay [3] and > 10000 nM in assay [4]. For the same compound, in assay [1], the inhibition at 10 µM came out at 105%.

As for `Cc1ccc(C(=O)N2CCC(c3ccc4ccncc4c3)CC2)cc1NC(=O)c1ccc(Cl)nc1` [Compound 37, 6-chloro-N-(5-(4-(isoquinolin-7-yl)piperidine-1-carbonyl)-2-methylphenyl)nicotinamide], the IC50 in assay [1] was 537 nM; in assay [2], 562 nM; in assay [3], 617 nM; in assay [4] it was 3390 nM. The inhibition at 10 µM in assay [1] was found to be 94%.

The values are drawn from US9562035B2, “Benzamide derivative useful as FASN inhibitors for the treatment of cancer” (Janssen Pharmaceutica NV, priority 2013, dated 2017).
